Each compound was assayed against T1, 14-3-3ζ/Tau pS2 peptide (Homo sapiens, UniProt P63104) (assay: Differential scanning fluorimetry of 14-3-3 with Tau pS2 peptide and compounds). Settings: compound 30-fold compared to 14-3-3ζ (75 μM), Tau pS2 peptide 25 μM, 14-3-3 2.5 μM; read-out: additional increase in melting temperature relative to the binary 14-3-3ζ/Tau pS2 peptide system.
T1 construct: made in house; host or cells: NiCo21 (DE3) E. coli
T1 sequence (P63104 1-245): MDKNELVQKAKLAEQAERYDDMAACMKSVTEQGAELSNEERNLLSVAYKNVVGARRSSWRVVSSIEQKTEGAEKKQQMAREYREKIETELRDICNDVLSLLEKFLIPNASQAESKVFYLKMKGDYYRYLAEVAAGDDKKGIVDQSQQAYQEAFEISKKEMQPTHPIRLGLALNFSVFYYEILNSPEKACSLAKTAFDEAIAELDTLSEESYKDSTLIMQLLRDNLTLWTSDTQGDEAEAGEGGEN
Format: binding
Description: Fig. 3 a Dose–response fluorescence anisotropy data of compound titrations to 10 nM FITC-labeled Tau pS2 peptide and 100 nM 14-3-3ζ. […] Mean of three individually performed experiments (see ESI ^† Fig. S8 for the protein titrations). e Differential scanning fluorimetry assay results. Identified melting temperatures (Tm) of 14-3-3γ alone (2.5 μM) and in the presence of Tau pS2 peptide (25 μM) and additionally with selected compounds (75 μM).
As an orthogonal method to profile the PPI stabilizing activity of selected compounds, differential scanning fluorimetry (DSF) assays were performed (Fig. 3e). […] Upon addition of compounds (1, 11, 13–14, and 20–22) to this PPI complex (30-fold compared to 14-3-3ζ), an additional increase in melting temperature between 0.9 °C and 2.1 °C was observed relative to the binary 14-3-3ζ/Tau pS2 peptide system. These observations are in agreement with the stabilization observed in the FA data and strongly testify to the molecular glue effect of our compound, by enhancing the stability of the PPI complex. […]
chromatography (HisTrap high performance cartridges, Cytiva). Typically two 5 mL columns were used for a 2 L culture in which the lysate was loaded on the column, washed with 10 CV wash buffer (50 mM Hepes, pH 8.0, 300 mM NaCl, 25 mM imidazole, 2 mM βME), and eluted with several fractions (2-4 CV) of elution buffer (50 mM Hepes, pH 8.0, 300 mM NaCl, 250 mM imidazole, 2 mM βME). Fractions containing the 14-3-3 protein were combined and dialyzed into 25 mM HEPES pH 8.0, 200 mM NaCl, 10 mM MgCl2, 2 mM βME, followed by dialysis into 25 mM HEPES, 100 mM NaCl, 10 mM MgCl2, 500 μM TCEP (adjusted to pH 8.0). Dialyzed protein was concentrated to ∼40 mg/mL, analyzed by Q -Tof LC/MS, and aliquots were flash -frozen for storage at −80 °C. For 14 -3-3σ∆c, 1 mg TEV per 100 mg purified protein was added to the dialysis to remove the purification tag. The cleaved sample was then again loaded on a 10 mL Ni-NTA column to separate the cleaved product from the expression tag and residual uncleaved protein. The flowthrough was loade d on a Superdex 75 pg 16/60 size exclusion column (GE Life Sciences) using 25 mM HEPES, 100 mM NaCl, 10 mM MgCl2, 500 μM TCEP (adjusted to pH = 8.0) as running buffer. Fractions containing the 14 -3-3 protein were pooled and concentrated to ∼60 mg/mL, analyzed Q -Tof LC/MS, and aliquots were flash -frozen for storage at −80°C. […]
The peptide screen was performed in a similar way as the 14-3-3ζ titration in the precence of compound.
14-3-3ζ was titrated in a 2-fold dilution series (starting at 400 µM 14-3-3ζ) to 100 nM of fluorescein-labeled peptides and 250 µM compound 18 (1% DMSO) in FA buffer (10 mM HEPES pH 7.4, 150 mM […]
Data shown is the average of a scientific triplicate.
Differential Scanning Fluorimetry (DSF)
DSF was performed using 40 µl samples containing 2.5 µM 14 -3-3ζ, 25 µM Tau peptide (Tau pS2, Tau pS214 or Tau pS324), […] (1% DMSO) and 5x ProteoOrange (Lumiprobe, 5000x stock in DMSO) in 10 mM HEPES, 150 mM NaCl, 50 µM TCEP (pH 7.4). The samples were heated from 35 °C to 79°C at a rate of 0.3 °C per 15 s in a C FX96 Touch Real-Time PCR Detection System (Bio -Rad). Fluorescence intensity was determined using excitation ( λem=525/20 nm) and emission ( λex=570/20 nm) filters.
Based on these melting curves, the negative derivative melting curve is obtained from which the melting temperature Tm was determined. All described melting temperatures are based on two or three independent experiments, from which the average and standard deviations were determined.
X-ray crystallography data collection and refinement
For x-ray crystallography, a C-terminally truncated 14-3-3σ protein (truncated after T231 to reduce flexibility) was used. This 14-3-3σ∆C was preincubated with Tau pS214 in complexation buffer (20 mM HEPES pH 7.5, 2 mM MgCl2 and 100 μM TCEP) in a 1:1.5 molar stoichiometry (protein:peptide) at a final protein concentration of 10.0 mg/mL. […]

ΔTm, 0.9 to 2.1 °C:
O=Cc1ccc(-n2ccnc2-c2ccccc2)cc1Br [Compound 1]
Cc1ccc(-c2nccn2-c2ccc(C=O)c(Br)c2)cc1 [Compound 11]
O=Cc1ccc(-n2ccnc2-c2ccc(F)cc2)cc1Br [Compound 13]
O=Cc1ccc(-n2ccnc2-c2ccc(Cl)cc2)cc1Br [Compound 14]
O=Cc1ccc(-n2ccnc2-c2ccc(C(F)(F)F)cc2)cc1Br [Compound 20]
O=Cc1ccc(-n2ccnc2-c2ccc(OC(F)(F)F)cc2)cc1Br [Compound 21]
N#Cc1ccc(-c2nccn2-c2ccc(C=O)c(Br)c2)cc1 [Compound 22]
